Data on 15 compounds can be found in patent US20190185508A1, “DEUTERATED NUCLEOSIDE REVERSE TRANSCRIPTASE INHIBITORS” (Merck Sharp & Dohme Corp., priority 2017, published 2019).

Data set [1] in a line: CTG assay: cytotoxicity in CellTiter-Glo Luminescent Cell Viability Assay. In kind it is cell-based. The following applies: MT4-GFP cells, 10% normal human serum, 48 h incubation. The protocol: Assessing Cytotoxicity in CellTiter-Glo Luminescent Cell Viability Assay (CTG).
MT4-GFP cells were seeded in RPMI 1640 supplemented with 10% fetal bovine serum, 100 U/mL penicillin/streptomycin overnight at 37° C./5% CO2/90% relative humidity. Cells were then washed and resuspended in RPMI 1640 containing 10% normal human serum at a density of 0.8×10^5 cells/mL. Compound plates were prepared by dispensing compounds dissolved in DMSO into wells of 384 well solid black plates (Corning 3571) using an ECHO acoustic dispenser (0.2 μl/well). […] Controls included DMSO. Cells were added (50 μL/well) to compound plates and were maintained at 37° C./5% CO2/90% relative humidity. CTG reagent (Promega, G7573) was added to the cell plates after 48 h incubation according to the manufacturer's description. Luminescence signals were recorded on EnVision plate reader (PerkinElmer). CC50s were determined by non-linear 4-parameter curve fitting. The resulting data is shown in Table 3 with the marketed HIV nucleoside reverse transcriptase inhibitor AZT (azidothymidine, zidovudine) included as a control.

The test system of data set [2] is HIV-1 (H9IIIB virus) replication in MT4-GFP cells. Kind of data set: Viking assay: antiviral potency in a multiple round HIV-1 infection assay. In kind it is cell-based. The following applies: Human immunodeficiency virus 1; 10% normal human serum; MT4-GFP cells infected with H9IIIB virus; inhibition of reproductive ratio R0; read-out: Viking, IC50 (10%NHS). The protocol:
Assessing antiviral potency in a multiple round HIV-1 infection assay. HIV-1 replication was monitored using MT4-gag-GFP clone D3 (hereafter designate MT4-GFP), which are MT-4 cells modified to harbor a GFP reporter gene, the expression of which is dependent on the HIV-1 expressed proteins tat and rev. Productive infection of an MT4-GFP cell with HIV-1 results in GFP expression approximately 24 h post-infection.
MT4-GFP cells were maintained at 37° C./5% CO2/90% relative humidity in RPMI 1640 supplemented with 10% fetal bovine serum, 100 U/mL penicillin/streptomycin, and 400 μg/mL G418 to maintain the reporter gene. For infections, MT4-GFP cells were placed in the same medium lacking G418 and infected overnight with H9IIIB virus at an approximate multiplicity of infection of 0.01 in the same incubation conditions. Cells were then washed and re-suspended in either RPMI 1640 containing 10% or 50% normal human serum at 1.6×10^5 cells/mL. Compound plates were prepared by dispensing compounds dissolved in DMSO into wells of 384 well poly D lysine-coated plates (0.2 μl/well) using an ECHO acoustic dispenser. Each compound was tested in a 10 point serial 3-fold dilution (typical final concentrations: 8.4 μM-0.43 nM). Controls included no inhibitor (DMSO only) and a combination of three antiviral agents (efavirenz, indinavir, and an integrase strand transfer inhibitor at final concentrations of 4 μM each). Cells were added (50 μL/well) to compound plates and the infected cells were maintained at 37° C./5% CO2/90% relative humidity.
Infected cells were quantified at two time points, ˜48 h and ˜72 h post-infection, by counting the number of green cells in each well using an Acumen eX3 scanner. The increase in the number of green cells over ˜24 h period gives the reproductive ratio, R0, which is typically 5-15 and has been shown experimentally to be in logarithmic phase (data not shown). Inhibition of R0 is calculated for each well, and IC50s determined by non-linear 4-parameter curve fitting.

Bounds are passed on as bounds.

As to `Cc1cn([C@H]2C[C@H](N=[N+]=[N-])[C@@H](CO)O2)c(=O)[nH]c1=O` [AZT, 3′-azido-3′-deoxythymidine, reference compound], in data set [1], the half-maximal cytotoxic concentration (CC50) at 48 h is above 8.4 µM. Further, the IC50 in data set [2] is 37 nM.
`[2H][C@@]1(O)C[C@H](n2cc(F)c3c(N)ncnc32)O[C@]1(C#C)CO` [Example 1] registered a CC50 at 48 h in data set [1] above 42 µM. Besides, the IC50 in data set [2] was determined as 2310 nM.
Take `[2H][C@]1(O)C[C@H](n2cc(F)c3c(N)ncnc32)O[C@]1(C#C)CO` [Example 2, (2R,3S,5R)-5-{4-amino-5-fluoro-7H-pyrrolo[2,3-d]pyrimidin-7-yl}-2-ethynyl-2-(hydroxymethyl)(3-^2H)oxolan-3-ol]: the CC50 at 48 h in data set [1] came to 31.9 µM. For the same compound, in data set [2], the IC50 is 3.1 nM.
As to `[2H][C@]1(O)C[C@H](n2cnc3c(N)nc(F)nc32)O[C@]1(C#C)CO` [Example 3, (2R,3S,5R)-5-(6-amino-2-fluoro-9H-purin-9-yl)-2-ethynyl-2-(hydroxymethyl)(3-^2H)oxolan-3-ol], in data set [1], the cytotoxic concentration (CC50) at 48 h was above 42 µM. The IC50 in data set [2] came out at 1.2 nM.
`[2H][C@@]1(O)C[C@H](n2cnc3c(N)nc(F)nc32)O[C@]1(C#C)CO` [Example 4, (2R,3R,5R)-5-(6-amino-2-fluoro-9H-purin-9-yl)-2-ethynyl-2-(hydroxymethyl)(3-^2H)oxolan-3-ol] came in with a CC50 at 48 h in data set [1] above 42 µM. For the same compound, in data set [2], the IC50 stood at 1190 nM.
As for `[2H][C@@]1(O)C[C@H](n2ccc3c(N)nc(Cl)nc32)O[C@]1(C#C)CO` [Example 5, (2R,3R,5R)-5-(4-amino-2-chloro-7H-pyrrolo[2,3-d]pyrimidin-7-yl)-2-ethynyl(3-^2H)-2-(hydroxymethyl)-tetrahydrofuran-3-ol], the CC50 at 48 h in data set [1] was above 42 µM. Besides, the IC50 in data set [2] is above 42000 nM.
`[2H][C@]1(O)C[C@H](n2ccc3c(N)nc(Cl)nc32)O[C@]1(C#C)CO` [Example 6, (2R,3S,5R)-5-(4-amino-2-chloro-7H-pyrrolo[2,3-d]pyrimidin-7-yl)-2-ethynyl(3-^2H)-2-(hydroxymethyl)-tetrahydrofuran-3-ol]: in data set [1], the CC50 at 48 h was above 42 µM. For the same compound, the IC50 in data set [2] was 10.6 nM.
Turning to `[2H]C(O)[C@@]1(C#C)O[C@@H](n2cnc3c(N)nc(F)nc32)C[C@@H]1O` (stereo partly drawn) [Example 7, [(2R,3S,5R)-5-(6-amino-2-fluoro-9H-purin-9-yl)-3-oxhydryl-2-ethynyloxolan-2-yl](^2H)-methanol], the CC50 at 48 h in data set [1] is above 42 µM. In data set [2], the IC50 turned out to be 0.7 nM.
In the case of `[2H]C([2H])(O)[C@@]1(C#C)O[C@@H](n2cnc3c(N)nc(F)nc32)C[C@@H]1O` [Example 8, [(2R,3S,5R)-5-(6-amino-2-fluoro-9H-purin-9-yl)-3-oxhydryl-2-ethynyloxolan-2-yl](^2H2)methanol], the CC50 at 48 h in data set [1] was above 42 µM. The IC50 in data set [2] amounted to 1.1 nM.
The like results for `[2H]C#C[C@]1(CO)O[C@@H](n2cnc3c(N)nc(F)nc32)C[C@@H]1O` [Example 9, (2R,3S,5R)-5-(6-amino-2-fluoro-9H-purin-9-yl)-2-(^2H)ethynyl-2-(hydroxymethyl)oxolan-3-ol] were, in that order, above 42 µM and 0.6 nM.
With `[2H]C(O)[C@@]1(C#C)O[C@@H](n2ccc3c(N)nc(Cl)nc32)C[C@@H]1O` (stereo partly drawn) [Example 10, (2R,3S,5R)-5-{4-amino-2-chloro-7H-pyrrolo[2,3-d]pyrimidin-7-yl}-2-ethynyl-2-[hydroxy(^2H)methyl]oxolan-3-ol], in data set [1], the CC50 at 48 h was above 42 µM. Besides, in data set [2], the IC50 stood at 5.5 nM.
Turning to `[2H]C([2H])(O)[C@@]1(C#C)O[C@@H](n2ccc3c(N)nc(Cl)nc32)C[C@@H]1O` [Example 11, (2R,3S,5R)-5-{4-amino-2-chloro-7H-pyrrolo[2,3-d]pyrimidin-7-yl}-2-ethynyl-2-[hydroxy(^2H2)methyl]oxolan-3-ol], the cytotoxic concentration (CC50) at 48 h in data set [1] was above 42 µM. Also, the IC50 in data set [2] amounted to 5.6 nM.
With `[2H]C#C[C@]1(CO)O[C@@H](n2ccc3c(N)nc(Cl)nc32)C[C@@H]1O` [Example 12, (2R,3S,5R)-5-{4-amino-2-chloro-7H-pyrrolo[2,3-d]pyrimidin-7-yl}-2-(^2H)ethynyl-2-(hydroxymethyl)oxolan-3-ol], the CC50 at 48 h in data set [1] was above 42 µM. For the same compound, in data set [2], the IC50 is 4.6 nM.
`[2H][C@]1(n2cnc3c(N)nc(F)nc32)C[C@H](O)[C@@](C#C)(CO)O1` [Example 13, (2R,3S,5R)-5-(6-amino-2-fluoro-9H-purin-9-yl)-2-ethynyl-2-(hydroxymethyl)tetrahydrofuran-5-^2H-3-ol]: the CC50 at 48 h in data set [1] is above 42 µM. For the same compound, the IC50 in data set [2] turned out to be 0.2 nM.
In data set [1], `[2H][C@]1(n2ccc3c(N)nc(Cl)nc32)C[C@H](O)[C@@](C#C)(CO)O1` [Example 14, (2R,3S,5R)-5-(4-amino-2-chloro-7H-pyrrolo[2,3-d]pyrimidin-7-yl)-2-ethynyl-2-(hydroxymethyl)tetrahydrofuran-5-^2H-3-ol] gave a CC50 at 48 h above 42 µM. In addition, in data set [2], the IC50 was 0.3 nM.
